Experimental data reported in patent US12145933B2, “Hemi (L)-tartrate forms of 3-({5-chloro-1-[3-(methylsulfonyl)propyl]-1H-indol-2-yl}methyl)-1-(2,2,2-trifluoroethy)-1,3-dihydro-2H-imidazo[4,5-C]pyridin-2-one and pharmaceutical compositions comprising the same” (Janssen Sciences Ireland Unlimited Company, priority 2020, dated 2024).
Converted amounts (≈) assume the structure as drawn. “And” between values parts separate entries of the source, which are not always exact repeats. Equal entries are not always repeated. “Also recorded” adds a separate entry of the source. Where two headings read alike, the source gives them in different places.

How the values were obtained:
Type in all cases: physicochemical
[1] = Equilibrium (thermodynamic) solubility in fed state human intestinal fluids; settings: for solubility Conc / solubility at 24 h: Fed HR pool human intestinal fluids, 37° C., 24 hours; for solubility at 24 h: human, 37 °C, plasma or biological fluid, thermodynamic from solid
Protocol: Determination of the equilibrium solubility of rilematovir in its free base form and its hemi (L)-tartrate form in fed state human intestinal fluids.
The thermodynamic solubility of rilematovir and the hemi (L)-tartrate form of rilematovir was determined using human intestinal fluids obtained from human volunteers in fed state. The pools of human intestinal fluids were prepared from individual intestinal aspirates collected among healthy volunteers under fed state conditions. Fed HR (high responders) pools were build up from duodenal samples in the fed state from volunteers with a clear postprandial bile salt increase.
A small magnetic stirrer bar (about 5 mm in length) and 300 μl of the respective human intestinal fluids at 37° C. were added to the Eppendorf tubes containing an excess of test compound. The mixtures were vortexed for a few seconds and placed on a magnetic stirrer plate (100 rpm) at 37° C.
After 24 hours, the Eppendorf tubes were centrifuged for 5 minutes at 12000 rpm (to separate dissolved from non-dissolved material). 10 µl of the supernatant was diluted into 100 μl methanol), well mixed and centrifuged for 1 minute to separate precipitated protein fraction. The test compound was quantified in the resulting supernatant using UPLC-UV quantification.
The pH was measured at the end of the experiment for each condition (pHend in Table 1).

[2] = Kinetic solubility in biorelevant media (FaSSIF, FeSSIF) with and without HPMC E5; settings: for solubility kinetic at 30 min / solubility kinetic at 60 min / solubility kinetic at 120 min: thermodynamic from solid, as μg rilematovir/mL; for solubility kinetic at 30 min: read-out: kinetic solubility, concentration at 30 minutes; for solubility kinetic at 60 min: read-out: kinetic solubility, concentration at 60 minutes; for solubility kinetic at 120 min: read-out: kinetic solubility, concentration at 120 minutes
Protocol: The kinetic solubility of rilematovir and the hemi (L)-tartrate form of rilematovir in different biorelevant medium (FaSSIF and FeSSIF) in the presence or absence of HPMC E5 was analysed.
An excess amount of rilematovir or the hemi (L)-tartrate form of rilematovir was added to biorelevant medium (approximately 5 mg solid/mL medium was used).
The media were stirred at 150 rpm at a temperature of 37° C. Time-dependent measurements were performed by removing 10 mL aliquots after 30 minutes, 1 hour and 2 hours. Undissolved solid material in the aliquot was removed using a Whatman SPARTAN RC syringe filter (diameter: 30 mm; pore size: 0.2 μm). Afterwards, a suitable dilution was made in NMP/water 30/70; v/v to avoid precipitation. The concentration of rilematovir, or the hemi (L)-tartrate form of rilematovir, in solution was determined using UPLC-UV.

[3] = Intrinsic dissolution rate (IDR), μDISS Profiler; settings: for IDR: 37.0 ± 0.5° C., 100 rpm
Protocol: The intrinsic dissolution rate (IDR) describes how fast a compound is released from its solid-state form into solution. The intrinsic dissolution rate is defined as the rate of dissolution of a pure active pharmaceutical ingredient when surface area, stirring speed, pH and ionic-strength of the dissolution medium are kept constant. Thus, it is measured as the release of API from a flat and well-defined surface area into an aqueous solution at a given pH value. By exposing the surface area of a material to an appropriate dissolution medium while maintaining constant temperature, stirring rate, and pH, the intrinsic dissolution rate can be determined. Typically the intrinsic dissolution is expressed in terms of mg per minute per cm^2.
Intrinsic Dissolution Method Parameters:
Pellet Compression Parameters

[4] = Long term storage of liquid aqueous suspension (disproportionation, polymorph conversion)
Protocol: A liquid aqueous suspension comprising Form 1 of the hemi (L)-tartrate form of rilematovir as described in Examples 10, 11, 14 or 15 was stored in a sealed glass vial at a temperature of 30° C., 40° C., and 50° C. Over a period of 8 months samples were taken and analysed (e.g. by XPRD or solid state ^19F-NMR spectroscopy).
FIG. 6 is the solid state ^19F-NMR spectrum of Form 1 having peaks at −70.004 ppm and −73.248 ppm. FIG. 7 is the solid state ^19F-NMR spectrum of Form 3 having a peak at −70.122 ppm.

[5] = FaSSIF with HPMC E5, aqueous with cosolvent or surfactant or cyclodextrin, FaSSIF pH 6.5, HPMC E5 1.39 mg/mL, 37° C.
[6] = FeSSIF with HPMC E5, aqueous with cosolvent or surfactant or cyclodextrin, FeSSIF pH 5.0, HPMC E5 1.39 mg/mL, 37° C.
[7] = FaSSIF pH 6.5, no HPMC E5, 37° C.
[8] = FeSSIF pH 5.0, no HPMC E5, 37° C.
[9] = aqueous with cosolvent or surfactant or cyclodextrin, FaSSIF pH 6.5, HPMC E5 1.39 mg/mL, 37° C.
[10] = aqueous with cosolvent or surfactant or cyclodextrin, FeSSIF pH 5.0, HPMC E5 1.39 mg/mL, 37° C.

With CS(=O)(=O)CCCn1c(Cn2c(=O)n(CC(F)(F)F)c3ccncc32)cc2cc(Cl)ccc21 [rilematovir, 3-({5-chloro-1-[3-(methylsulfonyl)propyl]-1H-indol-2-yl}methyl)-1-(2,2,2-trifluoroethyl)-1,3-dihydro-2H-imidazo[4,5-c]pyridin-2-one] the “solubility Conc” value ([1]; single determinations, listed as free base) was 36.80 µg/mL and 32.50 µg/mL, the solubility at 24 h ([1]; fed state human intestinal fluids (Fed HR pool), average of three, read-out: solubility Average) was 34.4 µg/mL (≈ 68.7 µM) and the solubility at 24 h ([1]; fed state human intestinal fluids (Fed HR pool), single determinations, read-out: solubility Conc) was 34 µg/mL (≈ 67.8 µM). The solubility kinetic at 30 min [2, 5] was 1.2 µg/mL (≈ 2.4 µM), the solubility kinetic at 60 min [2, 5] was 1.3 µg/mL (≈ 2.6 µM) and the solubility kinetic at 120 min [2, 5] was 1.5 µg/mL (≈ 2.99 µM). For the same compound, the solubility kinetic at 30 min [2, 6] was 12.3 µg/mL (≈ 24.6 µM), the solubility kinetic at 60 min [2, 6] was 13.4 µg/mL (≈ 26.8 µM) and the solubility kinetic at 120 min [2, 6] was 13.9 µg/mL (≈ 27.7 µM). The solubility kinetic at 30 min [2, 7] was 1.1 µg/mL (≈ 2.2 µM), the solubility kinetic at 60 min [2, 7] was 1.1 µg/mL (≈ 2.2 µM) and the solubility kinetic at 120 min [2, 7] was 1.2 µg/mL (≈ 2.4 µM). It also gave a solubility kinetic at 30 min [2, 8] of 12.5 µg/mL (≈ 25 µM), a solubility kinetic at 60 min [2, 8] of 13.2 µg/mL (≈ 26.4 µM) and a solubility kinetic at 120 min [2, 8] of 13.7 µg/mL (≈ 27.3 µM). For the same compound, the IDR ([3]; Medium: 0.01N HCl) was 8.98 μg/min/cm^2, the IDR ([3]; Medium: Blank FaSSIF) was 3.06 μg/min/cm^2 and the IDR ([3]; Medium: FASSIF) was under 1 μg/min/cm^2.

Work on CS(=O)(=O)CCCn1c(Cn2c(=O)n(CC(F)(F)F)c3ccncc32)cc2cc(Cl)ccc21.CS(=O)(=O)CCCn1c(Cn2c(=O)n(CC(F)(F)F)c3ccncc32)cc2cc(Cl)ccc21.O=C(O)C(=O)O [hemi oxalic co-crystal] yielded an IDR ([3]; Medium: 0.01N HCl) of 32.77 μg/min/cm^2, an IDR ([3]; Medium: Blank FaSSIF) of 1.62 μg/min/cm^2 and an IDR ([3]; Medium: FASSIF) of 1.18 μg/min/cm^2.

In the case of CS(=O)(=O)CCCn1c(Cn2c(=O)n(CC(F)(F)F)c3ccncc32)cc2cc(Cl)ccc21.O=C(O)C(O)C(O)C(=O)O [hemi (L)-tartrate form of rilematovir], the “solubility Conc” value ([1]; single determinations, listed as hemi tartrate form) is reported as 122.93 µg/mL and 126.92 µg/mL, the “solubility in fed state human intestinal fluids relative to free base form” value ([1]; fed state human intestinal fluids) is reported as “more than three times higher” and the solubility at 24 h ([1]; average of three, read-out: solubility Average) is reported as 117 µg/mL. The solubility at 24 h ([1]; single determinations, read-out: solubility Conc) was 102 µg/mL, the solubility kinetic at 30 min [2, 9] was 108 µg/mL and the solubility kinetic at 60 min [2, 9] was 93.1 µg/mL. The solubility kinetic at 120 min [2, 9] was 75.9 µg/mL, the solubility kinetic at 30 min [2, 10] was 1010 µg/mL and the solubility kinetic at 60 min [2, 10] was 853 µg/mL. For the same compound, the solubility kinetic at 120 min [2, 10] was 689 µg/mL, the “kinetic solubility relative to free base” value ([2]; biorelevant media, absence of the suspending agent HPMC) was “three (in FaSSIF) to six (in FeSSIF) times higher” and the solubility kinetic at 30 min [2, 7] was 4.4 µg/mL. It also gave a solubility kinetic at 60 min [2, 7] of 3.4 µg/mL, a solubility kinetic at 120 min [2, 7] of 3 µg/mL and a solubility kinetic at 30 min [2, 8] of 82.8 µg/mL. The solubility kinetic at 60 min [2, 8] was 67.1 µg/mL, the solubility kinetic at 120 min [2, 8] was 58.6 µg/mL and the IDR ([3]; Medium: 0.01N HCl) was 147 μg/min/cm^2. The IDR ([3]; Medium: Blank FaSSIF) was 5.45 μg/min/cm^2, the IDR ([3]; Medium: FASSIF) was 2.10 μg/min/cm^2 and the “intrinsic dissolution rate (IDR) compared with free base form” value ([3]; three biorelevant media) was “higher than the free base form of rilematovir”. The “disproportionation in liquid aqueous suspension” value ([4]; sealed glass vial, 30° C., 40° C., 50° C., 8 months, XRPD or solid state 19F-NMR) was “does not disproportionate; also recorded: no disproportionation has been observed” and the “polymorph conversion in liquid aqueous suspension” value ([4]; storage of aqueous suspension over time, XRPD and solid state 19F-NMR) was “over time Form 1 converts into Form 3”.
